Results from publication PMC11331414, “Small molecule telomerase inhibitors are also potent inhibitors of telomeric C-strand synthesis” (RNA, 2024).
Like-named read-outs stand apart in the source and are kept apart here.

Assays:
telomerase = target: T1, telomerase (Homo sapiens, UniProt O14746); experiment: Telomerase inhibition (direct primer extension, 3xTEL primer); format: biochemical
T1 construct: 3xFLAG (N); made in house; host or cells: HEK293T

[1] = target: CST–PP (CST–polymerase α–primase); experiment: CST–PP C-strand synthesis inhibition; format: biochemical, human; details: for IC50: 25 nM CST–PP, 25 nM template, read-out: IC50synthesis
Method: Telomeric C-strand synthesis was performed with CST–PP purified from cultured human cells (HEK293T), a synthetic telomeric DNA template (9xTEL, (TTAGGG)9), ribonucleotides to allow primase activity, and deoxynucleotides including α-^32P-dATP to monitor polymerase α extension. To test whether TMPyP4 would inhibit DNA synthesis by CST–PP, we preincubated 25 nM 9xTEL with increasing concentrations of the drug, then added 25 nM CST–PP and nucleotides and observed C-strand synthesis by gel electrophoresis (Fig. 1A, left). To serve as a size marker and recovery control, a small fraction of the template (T) was radiolabeled. The expected synthesis products were observed, all smaller than the 54-nt template (Supplemental Fig. S2A). The limited extension reflects the limited processivity of CST–PP, and the 6-nt ladder of products is due to multiple initiation sites on the 6-nt repeat template ([Zaug et al. 2022]).
(§1) CST–PP was purified from HEK 293T/17 cells (CRL-11268, ATCC), as previously described ([Zaug et al. 2021], [2022]). Briefly, cells were transfected with 3xFLAG-CTC1, Myc-STN1, and HA-TEN1 at a ratio of 1:1:1, expanded and grown for 48 h, and collected. The complex was purified by successive anti-FLAG and anti-HA immunoprecipitation. Endogenous Polα–primase copurifies with CST ([Zaug et al. 2022]). The purity of the complex was verified by silver staining and concentrations were determined by western blot analysis ([Zaug et al. 2022]).
Reactions (10 μL) contained 25 nM CST–PP and 25 nM single-stranded template DNA in 1× reaction buffer (50 mM Tris-HCl pH 8.0, 2 mM MgCl2, 1 mM spermidine, and 5 mM β-mercaptoethanol), 1× Na^+/K^+ (75 mM KCl and 50 mM NaCl) or 1× Li^+ (125 mM LiCl) salts, rNTPs (0.2 mM each CTP, UTP, ATP), and dNTPs (0.5 mM dCTP, 0.5 mM dTTP, 0.33 μM [α-^32P]dATP [300 Ci mmol^–1], 0.29 μM unlabeled dATP), the indicated concentrations of TMPyP4 or PDS, and 0.2% DMSO.
DNA templates and small molecule dilutions were prepared fresh immediately before each use. A small proportion of the template DNA was 5′ radiolabeled (typically ∼0.1–0.5 nM, 5000 counts per minute per reaction) to serve as a recovery and loading control and internal size marker. CST–PP generated more products with 9xnoGG in Na^+/K^+ than in other conditions, so in that condition, 5× more radioactive template was used (keeping total DNA at 25 nM) so that the control signal was not overwhelmed by the product signal. DNA templates in buffer and designated salt were placed in 95°C heat block for 5 min and cooled at room temperature for 30 min. Dilutions of PDS or TMPyP4 in 1% DMSO (or 1% DMSO only for no inhibitor condition) were added (final 0.2% DMSO), and mixtures were incubated in 30°C water bath for 30 min. CST–PP was added and mixtures were returned to water bath for 30 min. NTPs were added and the reaction proceeded at 30°C for 1 h; 50 µL stop mix (3.6 M ammonium acetate and 0.2 mg mL^−1 glycogen) was then added.
Quenched reactions were cleaned up using the Oligo Clean & Concentrator kit (D4060, Zymo) and eluted in water. An equivalent volume of 2× loading dye (95% formamide, 20 mM EDTA, and 0.05% each bromophenol blue and xylene cyanol) was added. Samples were boiled for 5 min, then loaded on a 10% acrylamide, 7 M urea, and 1× TBE gel. Molecular weight ladders were generated by telomerase as above (no small molecule). Gels were run at 30 W until the bromophenol blue was ∼2 in from the bottom (∼1–1.5 h) and dried on Whatman 3 mm paper at 80°C under a vacuum for 15–30 min. Gels were then exposed to a phosphorimager screen, which was imaged with Amersham Typhoon scanner 5 and analyzed using ImageQuant. The intensity of synthesis was normalized to the intensity of the loading control in the same lane. Relative synthesis was calculated by dividing normalized synthesis at each inhibitor concentration by the normalized synthesis without inhibitor. […]

[2] = target: CST–PP (CST–polymerase α–primase); experiment: CST–PP binding to template DNA (EMSA) inhibition; parameters: species or system human; details: 25 nM CST–PP, 25 nM template, read-out: IC50binding
Method: To test directly if TMPyP4 inhibited CST–PP by preventing association with the templates, we next measured the effect of the drug on the proportion of DNA bound by CST–PP. We used the same conditions as in the synthesis reaction and observed that the DNA was about half bound in the absence of an inhibitor. We prepared DNA templates with an increasing concentration of TMPyP4 as before, then incubated with CST–PP and analyzed by EMSA (electrophoretic mobility shift assay) (Fig. 2A). By normalizing the fraction of DNA bound at each concentration of inhibitor to fraction bound without drug, we determined IC50 values for binding (IC50binding) in the two salts for both 9xTEL and 9xnoGG (Fig. 2B; Table 1).
as §1
Binding reactions were prepared identically to synthesis reactions, except glycerol (10% final) was added in place of the NTP mix. DNA and small molecules were incubated for 30 min at 30°C, then CST was added and incubation continued for another hour. Samples were loaded onto a 1× TBE 0.7% agarose gel and run at 70 V for 75 min at 4°C. The gels were placed on Hybond N^+ atop Whatman 3 mm paper and dried under a vacuum at 80°C for 1 h. They were then exposed to a phosphorimager screen, which was imaged using an Amersham Typhoon scanner 5. Binding was analyzed using ImageQuant; fraction bound was determined by dividing the number of counts in the bound band by the total number of counts in the lane, not including the well. Relative binding was calculated by dividing the fraction bound at each inhibitor concentration by the fraction bound without inhibitor. Results were plotted and analyzed as above.

9xTEL DNA (TTAGGG)9 = experiment: Circular dichroism thermal melt of 9xTEL DNA; parameters: species or system human; details: 10:1 small molecule:DNA
Excerpt: As the native gels were insufficient to identify the types of secondary structures formed by the ssDNA templates, we turned to circular dichroism (CD) for more information. We first examined 9xTEL in NaCl; with positive peaks at 290 and 240 nm and a negative peak at 260 nm, the spectrum matched published spectra for antiparallel GQ formation (Fig. 5A). We also collected spectra of 9xTEL in Na^+/K^+ and in K^+ only, which were both consistent with hybrid GQ (Supplemental Fig. S4A,B). Then we added TMPyP4 to 9xTEL at a ratio of 10:1 in each salt condition. […] We performed thermal melts of 9xTEL in Na^+ with and without TMPyP4, monitoring the signal from the positive peak at 290 nm and the negative peak at 260 nm (Fig. 5B). We found the drug increased the melting temperature (Tm) by about 10°C. Thus, 9xTEL DNA in Na^+ forms an antiparallel GQ that is stabilized by TMPyP4, consistent with previous studies ([Martino et al. 2009]).
(§2) CD samples contained 250 nM DNA in 75 mM NaCl and 50 mM KCl (Na^+/K^+), or 125 mM NaCl, KCl, or LiCl, 0.2× reaction buffer (10 mM Tris-HCl pH 8.0, 0.4 mM MgCl2, 0.2 mM spermidine, and 1 mM β-mercaptoethanol), and 0.02% DMSO; those with inhibitors also included 2.5 µM TMPyP4 or PDS. Baseline control samples consisted of 1× corresponding salt and 0.2× reaction buffer.
(§3) Samples containing DNA, salt, and buffer were placed in 95°C heat block for 10 min and cooled at room temperature for 30 min. PDS, TMPyP4, or DMSO was added and samples were incubated at 30°C for 30 min; 1.8 mL was added to a 10 mm path length cuvette and loaded into a Chirascan Plus Circular Dichroism and Fluorescence Spectrometer (Applied Photophysics). Spectra were collected between 360 and 220 nm with a step size of 1 nm. Three repeats were averaged and smoothed with a second-order polynomial with 10 neighbors on each side (Prism).
Continuous ramped thermal melts were performed at the indicated wavelengths with a 2 nm bandwidth. The temperature was increased from 20°C to 90°C at a rate of 1°C/min with a time-per-point of 12 sec. […]

9xnoGG DNA (TGAGTG)9 = experiment: Circular dichroism thermal melt of 9xnoGG DNA; details: 10:1 small molecule:DNA; for thermal melt transition temperature: CD at 260 and 240 nm
Method: We performed thermal melts of 9xnoGG in Na^+ and Li^+ and monitored the signal at the predominant peaks (positive at 260 nm and negative at 240 nm). The curves were biphasic, with an initial sharp transition at ∼26°C and a minor, broader transition ∼40°C (Fig. 5E). We wondered whether the first transition might represent the dissociation of a dimeric species and collected a full CD spectrum of 9xnoGG at both 12°C and 30°C. While the spectra were very similar, the amplitudes of the positive and negative peaks at 12°C were nearly twice that of the same sample at 30°C (Supplemental Fig. S5B). CD peak attenuation is consistent with a dimer-to-monomer transition ([Kypr et al. 2009]; [Vorlíčková et al. 2012]).
as §2, §3
Continuous ramped thermal melts were performed at the indicated wavelengths with a 2 nm bandwidth. The temperature was increased from 20°C to 90°C at a rate of 1°C/min with a time-per-point of 12 sec. Positive peaks were normalized to 1 at the lowest temperature, and negative peaks were normalized to −1 at the lowest temperature. Spectra were smoothed as above.

T1 sequence (O14746 whole entry): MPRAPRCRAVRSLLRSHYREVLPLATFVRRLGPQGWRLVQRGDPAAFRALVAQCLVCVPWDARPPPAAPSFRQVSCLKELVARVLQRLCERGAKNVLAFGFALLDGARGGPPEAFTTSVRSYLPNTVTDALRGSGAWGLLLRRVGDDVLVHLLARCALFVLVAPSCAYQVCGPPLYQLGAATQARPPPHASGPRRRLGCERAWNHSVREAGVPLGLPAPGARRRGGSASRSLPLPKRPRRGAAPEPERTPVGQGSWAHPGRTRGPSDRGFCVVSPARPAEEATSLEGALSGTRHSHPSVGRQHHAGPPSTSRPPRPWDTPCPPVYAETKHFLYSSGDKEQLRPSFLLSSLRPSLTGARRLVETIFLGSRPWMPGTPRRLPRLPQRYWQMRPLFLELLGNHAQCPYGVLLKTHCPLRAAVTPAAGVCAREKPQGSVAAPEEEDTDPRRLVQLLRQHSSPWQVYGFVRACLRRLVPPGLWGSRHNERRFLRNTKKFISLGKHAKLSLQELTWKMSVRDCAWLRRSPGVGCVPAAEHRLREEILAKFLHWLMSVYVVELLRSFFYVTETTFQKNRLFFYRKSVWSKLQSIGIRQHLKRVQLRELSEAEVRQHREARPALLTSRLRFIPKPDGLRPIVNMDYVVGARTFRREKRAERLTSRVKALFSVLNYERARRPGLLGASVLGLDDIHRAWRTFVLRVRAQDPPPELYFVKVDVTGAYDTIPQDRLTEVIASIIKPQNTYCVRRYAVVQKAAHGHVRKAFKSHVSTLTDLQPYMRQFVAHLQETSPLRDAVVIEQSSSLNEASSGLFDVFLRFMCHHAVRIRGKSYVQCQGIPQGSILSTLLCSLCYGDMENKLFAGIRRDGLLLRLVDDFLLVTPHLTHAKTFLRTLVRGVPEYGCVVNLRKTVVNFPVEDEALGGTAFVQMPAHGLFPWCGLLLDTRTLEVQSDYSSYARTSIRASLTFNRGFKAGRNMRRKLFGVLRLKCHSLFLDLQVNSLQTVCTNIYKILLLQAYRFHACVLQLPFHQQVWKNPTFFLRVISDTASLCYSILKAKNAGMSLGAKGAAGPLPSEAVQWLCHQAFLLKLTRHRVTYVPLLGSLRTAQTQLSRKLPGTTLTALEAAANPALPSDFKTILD

| Compound | IC50 (telomerase; 2 nM telomerase, 50 nM 3xTEL DNA primer, 75 mM KCl/50 mM NaCl, 30°C, 1 h, read-out: half maximal inhibitory concentration (IC50) of telomerase) [µM] | IC50 ([1]; template 9xTEL, Li+) [nM] | IC50 ([1]; template 9xTEL, Na+/K+) [nM] | IC50 ([1]; template 9xnoGG, Li+) [nM] | IC50 ([1]; template 9xnoGG, Na+/K+) [nM] | IC50 ([2]; template 9xTEL, Li+) [nM] | IC50 ([2]; template 9xTEL, Na+/K+) [nM] | IC50 ([2]; template 9xnoGG, Li+) [nM] | IC50 ([2]; template 9xnoGG, Na+/K+) [nM] | stabilization in full spectrum thermal melt (9xTEL DNA (TTAGGG)9; 9xTEL in Li+) | stabilization of GQ secondary structure in thermal melt (9xTEL DNA (TTAGGG)9; 9xTEL in NaCl, complex could not be entirely melted, no Tm calculated) | IC50 (telomerase) [µM] | IC50synthesis in Li+ relative to Na+/K+ (fold higher) ([1]; template 9xTEL) | increase of melting temperature (Tm) (9xTEL DNA (TTAGGG)9; 9xTEL in Na+, CD at 290 and 260 nm) | thermal melt transition temperature (9xnoGG DNA (TGAGTG)9; 9xnoGG in Li+) [°C] | thermal melt transition temperature (9xnoGG DNA (TGAGTG)9; 9xnoGG in Na+) [°C] | increase of melting temperature of dimeric 9xnoGG (9xnoGG DNA (TGAGTG)9; 9xnoGG) |
| --- | --- | --- | --- | --- | --- | --- | --- | --- | --- | --- | --- | --- | --- | --- | --- | --- | --- |
| NCCOc1cc(C(=O)Nc2cc(OCCN)c3ccccc3n2)nc(C(=O)Nc2cc(OCCN)c3ccccc3n2)c1 [PDS, pyridostatin] | 0.52 | 110 | 140 | 180 | 200 | 140 | 110 | 160 | 120 | considerable stabilization | substantial stabilization | – | – | – | – | – | – |
| C[n+]1ccc(-c2c3nc(c(-c4cc[n+](C)cc4)c4ccc([nH]4)c(-c4cc[n+](C)cc4)c4ccc([nH]4)c(-c4cc[n+](C)cc4)c4nc2C=C4)C=C3)cc1 [TMPyP4] | – | 1000 | 250 | 310 | 220 | 840 | 260 | 200 | 190 | – | – | 6.4 | about fourfold | about 10 °C | 52 | 52 | over 20 °C |
